pEC50: −log10 of the molar value.
Tested on: HIV-2
Assay: Inhibition of HIV-2 in CEM/TK- cells
Format: cell-based
Conditions: Table 6; mean of two or more repeat experiments; read-out: HIV2 CEM-TK-: EC50 for inhibition of HIV-2 in CEM/TK^− cells
Protocol: (§1) Cells were infected with HIV-1 as previously described [Balzarini et al. AIDS (1991), 5, 21–28]. Briefly, 5×10^5 cells per milliliter were infected with HIV-1 or HIV-2 at 100 CCID50 (50% cell culture infective dose) per milliliter of cell suspension. Then 100 μL of the infected cell suspension was transferred to microtiter plate wells and mixed with 100 μL of the appropriate dilutions of the test compounds. After 4 days giant cell formation was recorded microscopically in the HIV-infected cell cultures [CEM], and after 5 days the number of viable cells was determined by trypan blue staining of the HIV-infected cell cultures [MT4].
(§2) The data columns are, in order: • HIV1 MT4: EC50 in μM for inhibition of HIV-1 in MT4 cells. • HIV2 MT4: EC50 in μM for inhibition of HIV-2 in MT4 cells. • CC50 MT4: CC50 in μM for toxicity to MT-4 cells. • HIV1 CEM: EC50 in μM for inhibition of HIV-1 in CEM cells. • HIV2 CEM: EC50 in μM for inhibition of HIV-2 in CEM cells. • HIV2 CEM-TK-: EC50 in μM for inhibition of HIV-2 in CEM/TK^− cells. • CC50 CEM: CC50 in μM for toxicity to CEM cells. • EC50 MSV: EC50 in μM for inhibition of MSV • MCC MSV: Minimum cytotoxic concentration in MSV assay

Compound | pEC50
CCCNP(=O)(OCC1C=CC(n2cc(C)c(=O)[nH]c2=O)O1)Oc1ccccc1 (centres unmarked) [Compound 858] | < 3.60
CCCCCCCCCCO[PH](=O)OCC1C=CC(n2cc(C)c(=O)[nH]c2=O)O1 (centres unmarked) [Compound 789] | 4.40
COC(=O)C1CCCN1P(=O)(OCC1C=CC(n2cc(C)c(=O)[nH]c2=O)O1)Oc1ccccc1 (centres unmarked) [Compound 879] | < 5.00
Cc1cn(C2C=CC(COP(=O)(O)Oc3ccccc3)O2)c(=O)[nH]c1=O (centres unmarked) [Compound 853] | 4.64
Cc1cn(C2C=CC(COP(=O)(OCCC#N)Oc3ccccc3)O2)c(=O)[nH]c1=O (centres unmarked) [Compound 861] | 4.76
Cc1cn([C@H]2C=C[C@@H](COP(=O)(O)O)O2)c(=O)[nH]c1=O [Compound 775] | 4.48
CC(NP(=O)(OCC1C=CC(n2ccc(=O)[nH]c2=O)O1)Oc1ccccc1)C(=O)OCc1ccccc1 (centres unmarked) [Compound 849] | 5.00
CCCCO[PH](=O)OCC1C=CC(n2cc(C)c(=O)[nH]c2=O)O1 (centres unmarked) [Compound 790] | 4.52
CO[PH](=O)OCC1C=CC(n2cc(C)c(=O)[nH]c2=O)O1 (centres unmarked) [Compound 817] | 4.70
CCCCCCCCO[PH](=O)OCC1C=CC(n2cc(C)c(=O)[nH]c2=O)O1 (centres unmarked) [Compound 791] | 4.64
Cc1cn(C2C=CC(CNP(=O)(OC(C)C)OC(C)C)O2)c(=O)[nH]c1=O (centres unmarked) [Compound 479] | < 3.59
COCCOCCO[PH](=O)OCC1C=CC(n2cc(C)c(=O)[nH]c2=O)O1 (centres unmarked) [Compound 787] | 4.35

Tested on: CEM cells
Assay: Toxicity to CEM cells
Format: cell-based, human
Conditions: CEM cells
Protocol: as §1, §2

Compound | CC50 [µM]
CCCCCCCCn1c(=O)c(C)cn(C2CC(N=[N+]=[N-])C(COP(=O)(NC(C)C(=O)OC)Oc3ccccc3)O2)c1=O (centres unmarked) [Cpd 774] | 15
COC(=O)C(Cc1ccccc1)NP(=O)(OCC1OC(n2cc(C)c(=O)[nH]c2=O)CC1N=[N+]=[N-])Oc1ccccc1 (centres unmarked) [Cpd 941] | 115

Same assay, conditions: Table 6; mean of two or more repeat experiments

Compound | CC50 [µM]
CCCCCCCCNP(=O)(OCC1C=CC(n2cc(C)c(=O)[nH]c2=O)O1)Oc1ccccc1 (centres unmarked) [Compound 829] | 23
CCOC(=O)C(C)NP(=O)(OCC1C=CC(n2cc(C)c(=O)[nH]c2=O)O1)Oc1ccccc1 (centres unmarked) [Compound 951] | 55
CCCNP(=O)(OCC1C=CC(n2cc(C)c(=O)[nH]c2=O)O1)Oc1ccccc1 (centres unmarked) [Compound 858] | > 250
CCCCCCCCCCCCNP(=O)(OCC1C=CC(n2cc(C)c(=O)[nH]c2=O)O1)Oc1ccccc1 (centres unmarked) [Compound 828] | 14
CCCCCCCCCCO[PH](=O)OCC1C=CC(n2cc(C)c(=O)[nH]c2=O)O1 (centres unmarked) [Compound 789] | 64
COC(=O)C1CCCN1P(=O)(OCC1C=CC(n2cc(C)c(=O)[nH]c2=O)O1)Oc1ccccc1 (centres unmarked) [Compound 879] | 42.5
Cc1cn(C2C=CC(COP(=O)(O)Oc3ccccc3)O2)c(=O)[nH]c1=O (centres unmarked) [Compound 853] | 153
Cc1cn(C2C=CC(COP(=O)(OCCC#N)Oc3ccccc3)O2)c(=O)[nH]c1=O (centres unmarked) [Compound 861] | ≥ 250
Cc1cn([C@H]2C=C[C@@H](COP(=O)(O)O)O2)c(=O)[nH]c1=O [Compound 775] | 174
CC(NP(=O)(OCC1C=CC(n2ccc(=O)[nH]c2=O)O1)Oc1ccccc1)C(=O)OCc1ccccc1 (centres unmarked) [Compound 849] | 115
CCCCO[PH](=O)OCC1C=CC(n2cc(C)c(=O)[nH]c2=O)O1 (centres unmarked) [Compound 790] | 177
CO[PH](=O)OCC1C=CC(n2cc(C)c(=O)[nH]c2=O)O1 (centres unmarked) [Compound 817] | 146
CCCCCCCCO[PH](=O)OCC1C=CC(n2cc(C)c(=O)[nH]c2=O)O1 (centres unmarked) [Compound 791] | 90
COCCOCCO[PH](=O)OCC1C=CC(n2cc(C)c(=O)[nH]c2=O)O1 (centres unmarked) [Compound 787] | 144

Tested on: HIV-1
Assay: microbe, parasite or virus in culture
Conditions: read-out: HIV1 CEM: EC50 for inhibition of HIV-1 in CEM cells; CEM cells, HIV-1
Protocol: as §1, §2

Compound | pEC50
CCCCCCCCn1c(=O)c(C)cn(C2CC(N=[N+]=[N-])C(COP(=O)(NC(C)C(=O)OC)Oc3ccccc3)O2)c1=O (centres unmarked) [Cpd 774] | < 5.00
COC(=O)C(Cc1ccccc1)NP(=O)(OCC1OC(n2cc(C)c(=O)[nH]c2=O)CC1N=[N+]=[N-])Oc1ccccc1 (centres unmarked) [Cpd 941] | < 4.30

Same assay, conditions: read-out: HIV1 CEM: EC50 for inhibition of HIV-1 in CEM cells; Table 6; mean of two or more repeat experiments

Compound | pEC50
CCCCCCCCNP(=O)(OCC1C=CC(n2cc(C)c(=O)[nH]c2=O)O1)Oc1ccccc1 (centres unmarked) [Compound 829] | < 5.00
CCOC(=O)C(C)NP(=O)(OCC1C=CC(n2cc(C)c(=O)[nH]c2=O)O1)Oc1ccccc1 (centres unmarked) [Compound 951] | 7.00
CCCNP(=O)(OCC1C=CC(n2cc(C)c(=O)[nH]c2=O)O1)Oc1ccccc1 (centres unmarked) [Compound 858] | < 3.60
CCCCCCCCCCCCNP(=O)(OCC1C=CC(n2cc(C)c(=O)[nH]c2=O)O1)Oc1ccccc1 (centres unmarked) [Compound 828] | < 5.00
COC(=O)C1CCCN1P(=O)(OCC1C=CC(n2cc(C)c(=O)[nH]c2=O)O1)Oc1ccccc1 (centres unmarked) [Compound 879] | < 5.00
Cc1cn(C2C=CC(COP(=O)(O)Oc3ccccc3)O2)c(=O)[nH]c1=O (centres unmarked) [Compound 853] | 6.19
Cc1cn(C2C=CC(COP(=O)(OCCC#N)Oc3ccccc3)O2)c(=O)[nH]c1=O (centres unmarked) [Compound 861] | 5.92
Cc1cn([C@H]2C=C[C@@H](COP(=O)(O)O)O2)c(=O)[nH]c1=O [Compound 775] | 6.10
CC(NP(=O)(OCC1C=CC(n2ccc(=O)[nH]c2=O)O1)Oc1ccccc1)C(=O)OCc1ccccc1 (centres unmarked) [Compound 849] | 4.64
CCCCO[PH](=O)OCC1C=CC(n2cc(C)c(=O)[nH]c2=O)O1 (centres unmarked) [Compound 790] | 6.19
CO[PH](=O)OCC1C=CC(n2cc(C)c(=O)[nH]c2=O)O1 (centres unmarked) [Compound 817] | 6.15
CCCCCCCCO[PH](=O)OCC1C=CC(n2cc(C)c(=O)[nH]c2=O)O1 (centres unmarked) [Compound 791] | 6.40
Cc1cn(C2C=CC(CNP(=O)(OC(C)C)OC(C)C)O2)c(=O)[nH]c1=O (centres unmarked) [Compound 479] | < 3.59
COCCOCCO[PH](=O)OCC1C=CC(n2cc(C)c(=O)[nH]c2=O)O1 (centres unmarked) [Compound 787] | 6.19

Tested on: MSV
Assay: Inhibition of MSV (in vitro)
Format: cell-based, Moloney Sarcoma Virus
Conditions: MSV
From the text: as §2

Compound | pEC50
COC(=O)C(Cc1ccccc1)NP(=O)(OCC1OC(n2cc(C)c(=O)[nH]c2=O)CC1N=[N+]=[N-])Oc1ccccc1 (centres unmarked) [Cpd 941] | < 4.00

Same assay, conditions: Table 6

Compound | pEC50
CCOC(=O)C(C)NP(=O)(OCC1C=CC(n2cc(C)c(=O)[nH]c2=O)O1)Oc1ccccc1 (centres unmarked) [Compound 951] | 4.60

Tested on: not listed separately
Assay: Minimum cytotoxic concentration in MSV assay
Format: cell-based
Conditions: MSV assay
From the text: as §2, with “CEM/TK^-” for “CEM/TK^−”, “[…]:” for “MSV • MCC MSV:”

Compound | MCC MSV: Minimum cytotoxic concentration in MSV assay
COC(=O)C(Cc1ccccc1)NP(=O)(OCC1OC(n2cc(C)c(=O)[nH]c2=O)CC1N=[N+]=[N-])Oc1ccccc1 (centres unmarked) [Cpd 941] | >100

Same assay, conditions: Table 6

Compound | MCC MSV: Minimum cytotoxic concentration in MSV assay
CCOC(=O)C(C)NP(=O)(OCC1C=CC(n2cc(C)c(=O)[nH]c2=O)O1)Oc1ccccc1 (centres unmarked) [Compound 951] | >100

Tested on: HIV-2
Assay: Inhibition of HIV-2 in CEM cells (giant cell formation)
Format: cell-based
Conditions: CEM cells, HIV-2; read-out: HIV2 CEM: EC50 for inhibition of HIV-2 in CEM cells
Protocol: as §1, §2

Compound | pEC50
CCCCCCCCn1c(=O)c(C)cn(C2CC(N=[N+]=[N-])C(COP(=O)(NC(C)C(=O)OC)Oc3ccccc3)O2)c1=O (centres unmarked) [Cpd 774] | < 5.00
COC(=O)C(Cc1ccccc1)NP(=O)(OCC1OC(n2cc(C)c(=O)[nH]c2=O)CC1N=[N+]=[N-])Oc1ccccc1 (centres unmarked) [Cpd 941] | < 4.30

Same assay, conditions: Table 6; mean of two or more repeat experiments; read-out: HIV2 CEM: EC50 for inhibition of HIV-2 in CEM cells

Compound | pEC50
CCCCCCCCNP(=O)(OCC1C=CC(n2cc(C)c(=O)[nH]c2=O)O1)Oc1ccccc1 (centres unmarked) [Compound 829] | ≤ 5.00
CCOC(=O)C(C)NP(=O)(OCC1C=CC(n2cc(C)c(=O)[nH]c2=O)O1)Oc1ccccc1 (centres unmarked) [Compound 951] | 7.15
CCCNP(=O)(OCC1C=CC(n2cc(C)c(=O)[nH]c2=O)O1)Oc1ccccc1 (centres unmarked) [Compound 858] | < 3.60
CCCCCCCCCCCCNP(=O)(OCC1C=CC(n2cc(C)c(=O)[nH]c2=O)O1)Oc1ccccc1 (centres unmarked) [Compound 828] | < 5.00
CCCCCCCCCCO[PH](=O)OCC1C=CC(n2cc(C)c(=O)[nH]c2=O)O1 (centres unmarked) [Compound 789] | 6.19
COC(=O)C1CCCN1P(=O)(OCC1C=CC(n2cc(C)c(=O)[nH]c2=O)O1)Oc1ccccc1 (centres unmarked) [Compound 879] | < 5.00
Cc1cn(C2C=CC(COP(=O)(O)Oc3ccccc3)O2)c(=O)[nH]c1=O (centres unmarked) [Compound 853] | 6.15
Cc1cn(C2C=CC(COP(=O)(OCCC#N)Oc3ccccc3)O2)c(=O)[nH]c1=O (centres unmarked) [Compound 861] | 6.02
Cc1cn([C@H]2C=C[C@@H](COP(=O)(O)O)O2)c(=O)[nH]c1=O [Compound 775] | 6.02
CC(NP(=O)(OCC1C=CC(n2ccc(=O)[nH]c2=O)O1)Oc1ccccc1)C(=O)OCc1ccccc1 (centres unmarked) [Compound 849] | 4.82
CCCCO[PH](=O)OCC1C=CC(n2cc(C)c(=O)[nH]c2=O)O1 (centres unmarked) [Compound 790] | 6.05
CO[PH](=O)OCC1C=CC(n2cc(C)c(=O)[nH]c2=O)O1 (centres unmarked) [Compound 817] | 6.26
CCCCCCCCO[PH](=O)OCC1C=CC(n2cc(C)c(=O)[nH]c2=O)O1 (centres unmarked) [Compound 791] | 6.22
Cc1cn(C2C=CC(CNP(=O)(OC(C)C)OC(C)C)O2)c(=O)[nH]c1=O (centres unmarked) [Compound 479] | < 3.59
COCCOCCO[PH](=O)OCC1C=CC(n2cc(C)c(=O)[nH]c2=O)O1 (centres unmarked) [Compound 787] | 6.02
